Source: paper PMC12627232 (MedComm, 2025)

Key:
HDAC5 = biological target: T1, HDAC5 (Homo sapiens, UniProt Q9UQL6); test: HDACs enzymatic assay HDAC5; assay type: biochemical; details: Class IIa
T1 construct: purchased BPS BIOSCIENCE Inc 50005
Experimental: (§1) HDACs enzymatic assays were conducted according to our previous work. […] Substrates (Boc‐Lys(acetyl)‐AMC for HeLa nuclear extract, Ac‐Leu‐Gly‐Lys (Tfa)‐AMC for HDAC4, HDAC5, HDAC6, HDAC7, HDAC9, HDAC10, and HDAC11, Boc‐Lys(triflouroacetyl)‐AMC for HDAC8 and Ac‐Leu‐Gly‐Lys(acetyl)‐AMC for HDAC1, HDAC2, HDAC3) were added to the mixture. The blank group was set to no enzyme or drug but contains substrates and the control group was set to no drug but contains substrates and enzymes to each 96‐well plate. After 30 min of incubation at 37°C, the mixture was terminated with 1 mg/mL trypsin and 3 µM TSA. After another 30 min, the fluorescence intensity was measured using a Varioskan plate reader at 360/460 nm. […] The inhibition curves and IC50 values were simulated and calculated using the log(inhibitor) versus response (three parameters) mode in GraphPad Prism software.

MDA-MB-231 cells [1] = test: GreenNuc assay for caspase-3 activation; assay type: cell-based, human; details: MDA-MB-231, 24 h
Experimental: Caspase‐3 activation was detected with the GreenNuc caspase‐3 assay kit for live cells (Beyotime Inc). Cells (10^5 cells per well) were seeded in black 96‐well plates and treated with different concentrations of compounds. After 24 h, the medium was discarded, and cells were treated with GreenNuc caspase‐3 substrate at room temperature for 30 min. Fluorescence intensity was measured using a Varioskan plate reader at 485/515 nm, and the final activation folds were calculated.

HDAC11 = biological target: T2, HDAC11 (Homo sapiens, UniProt Q96DB2); test: HDACs enzymatic assay HDAC11; assay type: biochemical; details: Class IV
T2 construct: purchased BPS BIOSCIENCE Inc 50011
T2 sequence (Q96DB2 whole entry): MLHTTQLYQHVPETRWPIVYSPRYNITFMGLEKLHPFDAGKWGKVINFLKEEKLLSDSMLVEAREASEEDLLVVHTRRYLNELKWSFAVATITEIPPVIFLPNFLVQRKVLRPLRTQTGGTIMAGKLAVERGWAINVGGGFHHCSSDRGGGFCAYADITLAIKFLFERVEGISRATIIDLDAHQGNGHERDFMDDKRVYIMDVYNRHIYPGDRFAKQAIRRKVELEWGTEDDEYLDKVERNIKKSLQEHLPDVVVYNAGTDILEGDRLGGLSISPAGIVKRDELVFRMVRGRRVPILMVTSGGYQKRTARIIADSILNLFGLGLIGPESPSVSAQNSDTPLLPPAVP
Experimental: as §1

MC38 syngeneic model = test: MC38 syngeneic model; assay type: in vivo
Experimental: C57BL/6J mice were obtained from HFK Bioscience (Beijing, China) and fed in laminar flow cabinets under SPF conditions. With the approval of the ethics committee of Shandong University, the animal experiments were conducted. […]. By the time tumors reached certain volumes, SDFZ‐8 treatment (SDFZ‐8 in PBS solution containing 5% DMSO, 60 mg/kg, qd, i.g.) was started, with five animals per treatment group. Body weight and tumor size were measured every day during the 14‐day treatment.

HeLa nuclear extract = test: HDAC inhibition, HeLa nuclear extract; assay type: biochemical
Experimental: HDACs enzymatic assays were conducted according to our previous work. In detail, the HeLa nuclear extract, HDAC1 (BPS BIOSCIENCE INC, 50051), HDAC2 (BPS BIOSCIENCE Inc; 50052), HDAC3/NCOR1 complex (BPS BIOSCIENCE Inc; 50003), HDAC4 (BPS BIOSCIENCE Inc; 50004), HDAC5 (BPS BIOSCIENCE Inc; 50005), HDAC6 (BPS BIOSCIENCE Inc; 50006), HDAC7 (BPS BIOSCIENCE Inc; 50007), HDAC8 (BPS BIOSCIENCE Inc; 50008), HDAC9 (BPS BIOSCIENCE Inc; 50009), HDAC10 (BPS BIOSCIENCE Inc; 50010), or HDAC11 (BPS BIOSCIENCE Inc; 50011) was diluted to the proper concentrations according to the relative enzymatic activity and the linear range of the plate reader and mixed with different concentrations of drugs. Substrates (Boc‐Lys(acetyl)‐AMC for HeLa nuclear extract, Ac‐Leu‐Gly‐Lys (Tfa)‐AMC for HDAC4, HDAC5, HDAC6, HDAC7, HDAC9, HDAC10, and HDAC11, Boc‐Lys(triflouroacetyl)‐AMC for HDAC8 and Ac‐Leu‐Gly‐Lys(acetyl)‐AMC for HDAC1, HDAC2, HDAC3) were added to the mixture. The blank group was set to no enzyme or drug but contains substrates and the control group was set to no drug but contains substrates and enzymes to each 96‐well plate. After 30 min of incubation at 37°C, the mixture was terminated with 1 mg/mL trypsin and 3 µM TSA. After another 30 min, the fluorescence intensity was measured using a Varioskan plate reader at 360/460 nm. […] The inhibition curves and IC50 values were simulated and calculated using the log(inhibitor) versus response (three parameters) mode in GraphPad Prism software.

MDA-MB-231 cells [2] = test: PD-L1 expression by flow cytometry; assay type: cell-based, human
Experimental: MDA‐MB‐231 cells in logarithmic growth phase were inoculated into six‐well plates with a cell density of 3 × 10^4 cells per well. After incubated at 37°C for 24 h, the original medium was abandoned and 900 µL complete medium was added, in which HitransG P infection solution was added. The virus dosage was calculated according to the formula and added to the cell. Virus volume = cell number × MOI value/virus titer. After incubated in the incubator at 37°C for 16 h, replace fresh complete medium. After that, the medium changed every 24 h. 48 h after infection, the cells were treated with or without compound at a concentration of 1 µM. After 48 h of culture, the fluorescence expression was observed under microscope, and the silencing effect of shHDAC1 was detected by Western Blot. The antibodies HDAC1 (Abmart; #T55154) and GAPDH (Beyotime; #AF2819) were used. The HDAC1‐siRNA lentivirus (shHDAC1) and negative control lentivirus (shCtrl) were obtained from Shanghai GeneChem Co., Ltd. (Shanghai, China).
Next, cells were digested into single‐cell suspension with trypsin, collected in a flow tube and washed with precooled 1 × PBS. Mouse serum was added to cells for 30 min at room temperature to block cells. Then the cells were incubated with anti‐human‐PD‐L1 (BioLegend; #329732) at 4°C for 1 h, and flow cytometry was performed with FACS Celesta (BD Biosciences, USA). […]

HDAC9 = biological target: T3, HDAC9 (Homo sapiens, UniProt Q9UKV0); test: HDACs enzymatic assay HDAC9; assay type: biochemical; details: Class IIa
T3 construct: purchased BPS BIOSCIENCE Inc 50009
T3 sequence (Q9UKV0 whole entry): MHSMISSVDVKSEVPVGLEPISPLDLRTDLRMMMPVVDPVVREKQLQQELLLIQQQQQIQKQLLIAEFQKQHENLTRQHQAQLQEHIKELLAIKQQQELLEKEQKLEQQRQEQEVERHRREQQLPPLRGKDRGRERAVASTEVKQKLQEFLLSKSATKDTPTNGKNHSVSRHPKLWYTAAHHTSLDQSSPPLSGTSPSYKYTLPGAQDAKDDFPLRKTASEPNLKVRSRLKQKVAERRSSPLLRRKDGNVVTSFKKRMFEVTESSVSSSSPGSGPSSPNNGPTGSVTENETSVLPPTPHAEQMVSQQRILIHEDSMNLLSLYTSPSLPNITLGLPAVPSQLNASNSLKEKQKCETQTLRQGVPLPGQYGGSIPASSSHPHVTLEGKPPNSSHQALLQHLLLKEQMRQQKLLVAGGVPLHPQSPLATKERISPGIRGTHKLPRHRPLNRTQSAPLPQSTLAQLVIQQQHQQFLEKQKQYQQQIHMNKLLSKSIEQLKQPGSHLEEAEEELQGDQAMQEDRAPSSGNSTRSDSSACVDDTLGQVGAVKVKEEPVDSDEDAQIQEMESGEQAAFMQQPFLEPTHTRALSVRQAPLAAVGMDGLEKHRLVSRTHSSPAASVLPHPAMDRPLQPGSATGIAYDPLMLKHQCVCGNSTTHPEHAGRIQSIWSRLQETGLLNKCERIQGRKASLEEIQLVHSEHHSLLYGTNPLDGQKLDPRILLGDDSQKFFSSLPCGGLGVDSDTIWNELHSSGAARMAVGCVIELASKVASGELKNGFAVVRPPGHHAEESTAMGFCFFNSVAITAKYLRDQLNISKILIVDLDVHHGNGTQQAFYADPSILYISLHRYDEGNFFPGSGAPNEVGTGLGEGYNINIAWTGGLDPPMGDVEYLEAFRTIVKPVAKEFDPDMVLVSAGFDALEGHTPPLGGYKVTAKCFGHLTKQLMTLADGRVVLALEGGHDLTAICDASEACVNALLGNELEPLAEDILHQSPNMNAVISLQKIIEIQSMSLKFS
Experimental: as §1

T1 sequence (Q9UQL6 whole entry): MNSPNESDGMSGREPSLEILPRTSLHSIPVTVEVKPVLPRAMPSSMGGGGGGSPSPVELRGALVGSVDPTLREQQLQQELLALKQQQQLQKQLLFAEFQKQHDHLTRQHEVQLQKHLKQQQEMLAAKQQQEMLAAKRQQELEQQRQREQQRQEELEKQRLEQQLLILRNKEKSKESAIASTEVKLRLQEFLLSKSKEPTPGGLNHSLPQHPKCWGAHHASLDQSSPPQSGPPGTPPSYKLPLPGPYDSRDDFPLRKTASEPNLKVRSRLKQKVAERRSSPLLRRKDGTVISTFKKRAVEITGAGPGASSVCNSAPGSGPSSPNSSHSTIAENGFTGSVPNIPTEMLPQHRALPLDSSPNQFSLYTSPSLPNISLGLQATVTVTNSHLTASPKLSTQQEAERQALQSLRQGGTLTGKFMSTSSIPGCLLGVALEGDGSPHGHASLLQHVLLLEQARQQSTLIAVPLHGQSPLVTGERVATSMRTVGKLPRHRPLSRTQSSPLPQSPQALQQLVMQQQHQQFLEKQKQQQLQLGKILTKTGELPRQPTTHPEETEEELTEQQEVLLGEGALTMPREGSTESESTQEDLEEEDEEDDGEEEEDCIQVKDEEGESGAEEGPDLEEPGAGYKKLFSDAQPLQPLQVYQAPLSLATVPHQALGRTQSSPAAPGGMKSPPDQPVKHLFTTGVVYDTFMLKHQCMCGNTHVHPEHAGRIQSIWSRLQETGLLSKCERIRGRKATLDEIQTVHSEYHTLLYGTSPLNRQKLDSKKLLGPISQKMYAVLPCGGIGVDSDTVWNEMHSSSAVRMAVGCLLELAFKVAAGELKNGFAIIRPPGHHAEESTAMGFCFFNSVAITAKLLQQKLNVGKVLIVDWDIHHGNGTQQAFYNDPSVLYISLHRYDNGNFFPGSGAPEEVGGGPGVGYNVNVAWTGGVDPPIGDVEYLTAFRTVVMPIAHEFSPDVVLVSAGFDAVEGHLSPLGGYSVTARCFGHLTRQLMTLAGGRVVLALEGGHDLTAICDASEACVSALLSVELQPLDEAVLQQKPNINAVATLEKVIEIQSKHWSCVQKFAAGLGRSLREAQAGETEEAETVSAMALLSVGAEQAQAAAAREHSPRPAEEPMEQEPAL

What does the source list for `O=C(CCCCCCNC(=O)c1cc(OCCc2ccccc2)c2ccccc2n1)NO` [SDFZ-8]?
IC50 (HDAC5): > 10 µM; caspase-3 activation (MDA-MB-231 cells [1]): significantly higher than that observed for SAHA; IC50 (HDAC11): > 10 µM; toxicity in organs (heart, liver, spleen, lung, kidney), H&E staining (MC38 syngeneic model): low toxicity; TGI (MC38 syngeneic model; C57BL/6J mice, SDFZ-8 60 mg/kg qd i.g., 14-day treatment): 71%; IC50 (HeLa nuclear extract; mean ± SD of three determinations, read-out: HDAC inhibitory activity IC50 (HeLa extract)): 0.01 µM; HDAC inhibitory activity surpassing LBH-589 (HeLa nuclear extract; versus LBH-589): 2.5 fold; HDAC inhibitory activity surpassing SAHA (HeLa nuclear extract; versus SAHA): 28.6 fold; PD-L1 expression (MDA-MB-231 cells [2]): increase; IC50 (HDAC9): > 10 µM
